Results: patent publication US20260022322A1, “MULTIMODAL BIOPHYSICAL CHARACTERIZATION APPARATUS, SYSTEM, METHOD, AND USE” (Yigong Ruixin (Xiamen) Technology Co., Ltd, priority 2023, published 2026)

How the values were obtained:
[1] = tested on: macrophage cell line THP-1; assay: Nuclear hardness of activated THP-1 by magnetic material method and fluorescence method; format: cell-based; conditions: THP-1 activated to M1-type macrophages
Excerpt: S1: Provide a chip whose surface is covered with PDMS nano-magnetic micropillars. The micropillars contain a fluorescent substance and have an extracellular matrix coating.
S2: Culture the macrophage cell line THP-1 on this chip. Contact between the THP-1 cells and the chip is made by controlling the height of the culture medium.
S3: Add lipopolysaccharide (LPS) to the culture medium to activate the THP-1 cells, causing them to transform into M1-type macrophages.
S4: After several days of cultivation, use the magnetic material method to turn on the magnetic field and measure the reflected light attenuation. After turning off the magnetic field, measure the light reflection signal attenuation value and frequency of each micropillar, and sequentially calculate the softness/hardness of the nucleus at each position.
S5: Use paraformaldehyde to fix the cells on the chip, and use DAPI to stain the nuclei.
S6: Using the fluorescence method, use a confocal microscope to perform a Z-axis tomographic scan from the top to the bottom of the micropillars, and analyze the depth of the DAPI signal of the nucleus between the micropillars. […]
The results measured by the magnetic material method and the fluorescence method are the same (FIG. 33), proving that the accuracy of measuring nuclear hardness by the magnetic material method has been cross-validated by the fluorescence method.

[2] = tested on: tumor cells; assay: Immune-tumor cell interaction on cell mechanics chip with drug intervention; format: cell-based
Excerpt: S1. Prepare the chip: Select a cell mechanics chip with a micropillar structure. The top of the micropillars is coated with a suitable extracellular matrix (ECM) to promote the attachment and growth of tumor cells and immune cells. Use an anti-adhesion treatment on the side surfaces of the micropillars and in the space between them.
S2. Seed tumor cells and immune cells: Seed tumor cells and immune cells (such as NK cells or T cells) separately on the mechanics chip, allowing them to interact.
S3. Monitor the mechanical properties of the tumor cells: Use the light reflection signal and micropillar deflection to monitor in real-time the changes in the cell mechanical force and hardness of the tumor cells during their interaction with the immune cells.
S4. […] Softer tumor cells (with smaller cell mechanical force) are difficult for immune cells to recognize and kill.
S5. Drug intervention: Add the drug JAS, which makes tumor cells harder, to the culture medium, and observe the changes in the cell mechanical force and hardness of the tumor cells.
S6. Evaluate the effect of drug intervention: Under the action of the drug, the tumor cells become harder, and the cell mechanical force increases (FIG. 32). It was observed that the killing effect of immune cells on tumor cells was enhanced accordingly.

[3] = drug added to culture medium, micropillar chip, light reflection signal (FIG. 32)

| Compound | sagging depth of the nucleus between the micropillars ([1]; DAPI, confocal Z-axis scan (fluorescence method)) | nuclear hardness ([1]; magnetic material method and fluorescence method gave the same result (FIG. 33)) | cell mechanical force of the tumor cells [2, 3] | hardness of the tumor cells [2, 3] | killing effect of immune cells on tumor cells ([2]; tumor cells co-seeded with immune cells (such as NK cells or T cells), under the action of the drug) |
| --- | --- | --- | --- | --- | --- |
| lipopolysaccharide [LPS] | becomes deeper | softer | – | – | – |
| C/C1=C\[C@H](C)C[C@H](C)OC(=O)C[C@H](c2ccc(O)cc2)NC(=O)[C@@H](Cc2c(Br)[nH]c3ccccc23)N(C)C(=O)[C@H](C)NC(=O)[C@@H](C)C1 [JAS] | – | – | increases | become harder | enhanced |
